Test system: Alternaria brassicae
Assay: In vivo test on Alternaria brassicae (leaf spot of crucifers)
Settings: 500 ppm, preventive spray on radish plants (Pernot variety), contaminated after 24 hours, grading 6 to 7 days after contamination vs control plants
Protocol: The active ingredients tested are prepared by potter homogenisation in a mixture of acetone/tween/water. This suspension is then diluted with water to obtain the desired active material concentration.
Radish plants (Pernot variety), sown on a 50/50 peat soil-pozzolana substrate in starter cups and grown at 18-20° C., are treated at the cotyledon stage by spraying with the active ingredient prepared as described above.
Plants, used as controls, are treated with the mixture of acetone/tween/water not containing the active material.
After 24 hours, the plants are contaminated by spraying them with an aqueous suspension of Alternaria brassicae spores (40,000 spores per cm^3). The spores are collected from a 12 to 13 days-old culture.
The contaminated radish plants are incubated for 6-7 days at about 18° C., under a humid atmosphere.
Grading is carried out 6 to 7 days after the contamination, in comparison with the control plants.

With `O=C(NCCCc1ccc(Cl)cc1Cl)c1ccccc1C(F)(F)F` [Compound 1, N-[3-(2,4-dichlorophenyl)propyl]-2-(trifluoromethyl)benzamide] the protection was “at least 70%”.
